Measurements from patent US20170050957A1, “4-AMINO-6-(HETEROCYCLIC)PICOLINATES AND 6-AMINO-2-(HETEROCYCLIC)PYRIMIDINE-4-CARBOXYLATES AND THEIR USE AS HERBICIDES” (Dow AgroSciences LLC, priority 2013, published 2017).
Read-outs that look alike come from different tables or passages of the source.

Key:
[1] = tested on: Key Broadleaf Weed and Crop Species; experiment: Post-emergent Test II herbicidal activity (Table 15); format: in vivo; details: post-emergence, 336 h, 14 d; for pest or weed control at 35 g/ha: 35 g ai/ha; for pest or weed control at 70 g/ha: 70 g ai/ha; for pest or weed control at 140 g/ha: 140 g ai/ha
Outline: (§1)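 Greenhouse-grown seedlings at first/second true leaf receive a track spray at 187 L/ha, using a highest rate plus two-fold serial dilutions down to 1/16×. Watering is by subirrigation to avoid wash-off. Percent injury (0-100) is judged by eye at 14 d against untreated plants.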

[2] = tested on: Key Grass and Sedge Weeds as well as Grass Crops; experiment: Post-emergent Test II herbicidal activity (Table 16); format: in vivo; details: post-emergence, 336 h, 14 d; for pest or weed control at 35 g/ha: 35 g ai/ha; for pest or weed control at 70 g/ha: 70 g ai/ha; for pest or weed control at 140 g/ha: 140 g ai/ha
Outline: as §1

[3] = Abutilon theophrasti, velvetleaf (Abutilon theophrasti), read-out: Visual Growth Reduction (%) 14 Days After Application, ABUTH
[4] = Amaranthus retroflexus, redroot pigweed (Amaranthus retroflexus), read-out: Visual Growth Reduction (%) 14 Days After Application, AMARE
[5] = Brassica napus, oilseed rape, canola (Brassica napus), read-out: Visual Growth Reduction (%) 14 Days After Application, BRSNN
[6] = Chenopodium album, lambsquarters (Chenopodium album), read-out: Visual Growth Reduction (%) 14 Days After Application, CHEAL
[7] = Euphorbia heterophylla, wild poinsettia (Euphorbia heterophylla), read-out: Visual Growth Reduction (%) 14 Days After Application, EPHHL
[8] = Helianthus annuus, sunflower (Helianthus annuus), read-out: Visual Growth Reduction (%) 14 Days After Application, HELAN
[9] = Cyperus esculentus, yellow nutsedge (Cyperus esculentus), read-out: Visual Growth Reduction (%) 14 Days After Application, CYPES
[10] = Echinochloa crus-galli, barnyardgrass (Echinochloa crus-galli), read-out: Visual Growth Reduction (%) 14 Days After Application, ECHCG
[11] = Oryza sativa, rice (Oryza sativa), read-out: Visual Growth Reduction (%) 14 Days After Application, ORYSA
[12] = Setaria faberi, giant foxtail (Setaria faberi), read-out: Visual Growth Reduction (%) 14 Days After Application, SETFA
[13] = Triticum aestivum, wheat, spring (Triticum aestivum), read-out: Visual Growth Reduction (%) 14 Days After Application, TRZAS
[14] = Zea mays, maize, corn (Zea mays), read-out: Visual Growth Reduction (%) 14 Days After Application, ZEAMX

## COC(=O)c1nc(-c2cc3[nH]ccc3cc2F)c(F)c(N)c1Cl [Compound 1.13]
[1]; [3]
  pest or weed control at 35 g/ha: 0 to 29%
  pest or weed control at 70 g/ha: 0 to 29%
  pest or weed control at 140 g/ha: 0 to 29%
[1]; [4]
  pest or weed control at 35 g/ha: 0 to 29%
  pest or weed control at 70 g/ha: 30 to 44%
  pest or weed control at 140 g/ha: 30 to 44%
[1]; [5]
  pest or weed control at 35 g/ha: 0 to 29%
  pest or weed control at 70 g/ha: 0 to 29%
  pest or weed control at 140 g/ha: 30 to 44%
[1]; [6]
  pest or weed control at 35 g/ha: 60 to 74%
  pest or weed control at 70 g/ha: 75 to 84%
  pest or weed control at 140 g/ha: 85 to 94%
[1]; [7]
  pest or weed control at 35 g/ha: 0 to 29%
  pest or weed control at 70 g/ha: 0 to 29%
  pest or weed control at 140 g/ha: 30 to 44%
[1]; [8]
  pest or weed control at 35 g/ha: 45 to 59%
  pest or weed control at 70 g/ha: 60 to 74%
  pest or weed control at 140 g/ha: 60 to 74%
[2]; [9]
  pest or weed control at 35 g/ha: 0 to 29%
  pest or weed control at 70 g/ha: 0 to 29%
  pest or weed control at 140 g/ha: 0 to 29%
[2]; [10]
  pest or weed control at 35 g/ha: 0 to 29%
  pest or weed control at 70 g/ha: 0 to 29%
  pest or weed control at 140 g/ha: 0 to 29%
[2]; [11]
  pest or weed control at 35 g/ha: 0 to 29%
  pest or weed control at 70 g/ha: 0 to 29%
  pest or weed control at 140 g/ha: 0 to 29%
[2]; [12]
  pest or weed control at 35 g/ha: 0 to 29%
  pest or weed control at 70 g/ha: 0 to 29%
  pest or weed control at 140 g/ha: 0 to 29%
[2]; [13]
  pest or weed control at 35 g/ha: 0 to 29%
  pest or weed control at 70 g/ha: 0 to 29%
  pest or weed control at 140 g/ha: 0 to 29%
[2]; [14]
  pest or weed control at 35 g/ha: 0 to 29%
  pest or weed control at 70 g/ha: 0 to 29%
  pest or weed control at 140 g/ha: 0 to 29%
